In patent publication US20210137903A1, “ANTI-ANDROGENS FOR THE TREATMENT OF PROSTRATE CANCER” (priority 2019, published 2021):
Where two headings read alike, the source gives them in different places.

Legend:
[1] = Example 1 relative bioavailability study: safety evaluations; format: in vivo, human
Procedure: Safety: Safety was evaluated throughout the study by means of adverse events (AEs), laboratory safety (hematology and serum chemistry), electrocardiograms (ECGs), vital signs (blood pressure, pulse, respiratory rate, and body temperature), and physical examinations (see the Time and Events Schedule in FIG. 1 for details).
Safety: Baseline for all laboratory evaluations, 12-lead ECG measurements, and vital signs were defined as the last evaluation done before the first study drug administration. Safety was evaluated by examining the incidence and type of adverse events, and changes in clinical laboratory test values, physical examination results, 12-lead ECGs, and vital sign measurements from the screening phase through study completion, including the washout intervals and the End-of-Study visit.
All subjects who were randomly assigned to treatment and received at least one dose of the study drug were included in the safety analysis.
The verbatim terms used in the CRF by investigators to identify adverse events was coded using the Medical Dictionary for Regulatory Activities (MedDRA). All reported adverse events with onset during the treatment phase (ie, treatment-emergent adverse events, and adverse events that have worsened since baseline) were included in the analysis. For each adverse event, the percentage of subjects who experience at least 1 occurrence of the given event was summarized by treatment group.
The severity assessment for an adverse event/serious adverse event was completed using the NCI-CTCAE Version 5.0. Any adverse event/serious adverse event not listed in the NCI-CTCAE was graded by the investigator using the standard grades as follows: […]

[2] = Single 240-mg dose pharmacokinetics in healthy subjects (earlier studies); format: in vivo, human
Text: (§1) Apalutamide is a Biopharmaceutics Classification System Class II drug (highly permeable and poorly soluble). The commercialized formulation is a spray dried powder of amorphous apalutamide.

[3] = Example 1 relative bioavailability study: pharmacokinetics, whole tablets vs mixture in applesauce; format: in vivo, human; conditions: n=10
Procedure: This was a randomized, open-label, balanced, single dose, two-treatment, two-period, two-sequence, crossover relative bioavailability study.
Healthy male subjects were randomly assigned to 1 of 2 treatment sequences by following the randomization scheme as given below.
All study drug were taken in the morning on Day 1 of each treatment period. […] For Treatment B, the study drug-applesauce mixture was prepared by a pharmaceutical technician or pharmacist. An additional 50 mL of water for either treatments was allowed if necessary. Study drug of Treatment B was be ingested within 5 minutes. Treatment A was be swallowed whole and not chewed, divided, dissolved, or crushed.
Additional PK parameters could be included if deemed appropriate.
Pharmacokinetic analysis was performed by or under the responsibility of the sponsor.
Pharmacokinetic and statistical analysis were done using Phoenix™ WinNonlin® (Tripos L.P.). Noncompartmental analysis was applied for the pharmacokinetic analysis. Furthermore, Microsoft Excel® (Microsoft, Redmond, Wash., United States), and SAS (SAS Institute Inc., Cary, N.C., US) were used.
If one of the PK parameters could not be determined for a given subject in 1 or more periods, the subject's data was not included in the statistical analysis of that particular PK parameter. The analysis was performed on log-transformed PK parameters.
A mixed effect model that includes treatment, period, and treatment sequence as fixed effects, and subject as a random effect, was used to estimate the least squares means and intrasubject variance. Using these estimated least squares means and intrasubject variance, the point estimate and 90% CIs for the difference in means on a log scale between test and reference were constructed. The limits of the CIs was retransformed using antilogarithms to obtain 90% CIs for the geometric mean ratios of Cmax and AUC0-168 h of the test to reference formulation. A similar analysis was conducted for AUC0-72 h for supplemental purpose.

[4] = Biopharmaceutics Classification System classification; format: physicochemical; conditions: highly permeable and poorly soluble
Text: as §1

[5] = tested on: non-castrate hormone-sensitive and bicalutamide-resistant human prostate cancer xenograft models; conditions: cited from earlier work
high-risk nmCRPC = assay: Phase 3 SPARTAN registration study, apalutamide 240 mg once daily vs placebo; format: in vivo, human
Text: This study was a randomized, double-blind, placebo-controlled, multicenter trial that evaluated apalutamide treatment in patients with high-risk nmCRPC. […] All patients continued to receive ongoing androgen-deprivation therapy (GnRHa or surgical castration).

CNC(=O)c1ccc(N2C(=S)N(c3cnc(C#N)c(C(F)(F)F)c3)C(=O)C23CCC3)cc1F [apalutamide, 4-[7-(6-cyano-5-trifluoromethylpyridin-3-yl)-8-oxo-6-thioxo-5,7-diazaspiro[3.4]oct-5-yl]-2-fluoro-N-methylbenzamide]
deaths or serious TEAEs ([1]; in vivo): no deaths or serious TEAEs
overall safety and tolerability of 240 mg as whole tablets and as dispersed tablets in applesauce ([1]; in vivo): safe and generally well tolerated
subjects with QTcB or QTcF increase of >60 ms from baseline ([1]; in vivo): No subjects
subjects with QTcB or QTcF values of >480 ms ([1]; in vivo): No subjects
AE leading to treatment discontinuation ([1]; n (%)): 1 (8.3%)
AE leading to treatment discontinuation: >=Grade 3 ([1]; n (%)): 0
AE leading to treatment discontinuation: Drug-related to Treatment A ([1]; n (%)): 0
AE leading to treatment discontinuation: Drug-related to Treatment B ([1]; n (%)): 1 (8.3%)
AE leading to treatment discontinuation: Grade 1 ([1]; n (%)): 1 (8.3%)
AE leading to treatment discontinuation: Grade 2 ([1]; n (%)): 0
Serious TEAE: >=Grade 3 ([1]; n (%)): 0
Serious TEAE: Drug-related to Treatment A ([1]; n (%)): 0
Serious TEAE: Drug-related to Treatment B ([1]; n (%)): 0
Serious TEAE: Grade 1 ([1]; n (%)): 0
Serious TEAE: Grade 2 ([1]; n (%)): 0
Serious Treatment Emergent Adverse Events ([1]; n (%)): 0
Treatment Emergent Adverse Events: Drug-related to Treatment A ([1]; n (%)): 4 (33.3%)
Treatment Emergent Adverse Events: Drug-related to Treatment B ([1]; n (%)): 4 (33.3%)
subjects with TEAE gynecomastia ([1]; n (%)): 3 (25.0%)
subjects with sexual side effects ([1]; n (%)): 3 (25.0%)
Treatment Emergent Adverse Events, subjects ([1]; n (%) of subjects treated): 5 (41.7%)
Treatment Emergent Adverse Events: >=Grade 3 ([1]; worst grade, n (%)): 0
Treatment Emergent Adverse Events: Grade 1 ([1]; worst grade, n (%)): 4 (33.3%)
Treatment Emergent Adverse Events: Grade 2 ([1]; worst grade, n (%)): 1 (8.3%)
Cmax lower with a high-fat meal compared to fasted ([2]; fed vs fasted): approximately 16%
extent of absorption based on AUC∞ under fed conditions ([2]; fed vs fasted): remained unchanged
bioavailability ([2]; human, in vivo, oral, single dose 240 mg, read-out: absolute bioavailability): ~100%
Cmax ([2]; human, plasma, oral, 240 mg, N=15, read-out: mean single dose plasma Cmax): ~2400 ng/mL
half-life ([2]; human, plasma, oral, 240 mg, human, read-out: half-life (converted)): ~168 h
Cmax ([2]; human, plasma, oral, 240 mg, read-out: mean Cmax from a similar study): 2420 ng/mL
half-life ([2]; human, plasma, oral, 240 mg, read-out: mean elimination half-life (t1/2) (converted)): ~162 h
AUC(0-t) ([2]; human, plasma, oral, 240 mg, N=15, read-out: AUC0-168 h from another bioavailability study): 121 µg·h/mL
AUC ([2]; human, plasma, oral, 240 mg, N=15, read-out: mean AUC28): 225 µg·h/mL
Tmax ([2]; human, plasma, oral, single 240-mg dose, tablet, healthy subjects, read-out: median Tmax): 2 to 3 h
Fabs ([2]; single dose 240 mg): 1.11
AUC0-72h Intra-subject CV(%) [3]: 3.7%
AUC0-168h Intra-subject CV(%) [3]: 2.7%
Cmax Intra-subject CV(%) [3]: 13.8%
Biopharmaceutics Classification System class [4]: Class II
tumor regression [5]: partial or complete tumor regression
subjects with documented PSA progression (high-risk nmCRPC; 192 subjects): 24%
arthralgia (high-risk nmCRPC; TEAE incidence): 16%
diarrhea (high-risk nmCRPC; TEAE incidence): 20%
fatigue (high-risk nmCRPC; TEAE incidence): 30%
hypertension (high-risk nmCRPC; TEAE incidence): 25%
nausea (high-risk nmCRPC; TEAE incidence): 18%
weight decreased (high-risk nmCRPC; TEAE incidence): 16%
fall (high-risk nmCRPC; TEAE incidence, all grades): 16%
skin rash (grouped term) (high-risk nmCRPC; TEAE incidence, all grades): 24%
fracture (high-risk nmCRPC; all grades): 12%
hypothyroidism (high-risk nmCRPC; all grades): 8.1%
seizure (high-risk nmCRPC; all grades): 0.2%
Grade 3 skin rashes (high-risk nmCRPC; in vivo): 5.2%
decrease of risk of PSA progression compared with placebo (high-risk nmCRPC; in vivo): 94%
incidence of AEs of special interest (high-risk nmCRPC; in vivo): 42%
longer median metastasis-free survival over placebo (high-risk nmCRPC; in vivo): 2 years
lower limit of the 95% CI for the median time to PSA progression (high-risk nmCRPC; in vivo): 36.8 months
median time to PSA progression (high-risk nmCRPC; in vivo): not estimable
subjects who discontinued treatment due to TEAEs (high-risk nmCRPC; in vivo): 11%
subjects with Grade 3-4 TEAEs (high-risk nmCRPC; in vivo): 45%
subjects with serious adverse events (SAEs) (high-risk nmCRPC; in vivo): 25%
subjects with treatment-emergent adverse events (high-risk nmCRPC; in vivo): 97%
total PSA response (confirmed and unconfirmed) (high-risk nmCRPC; in vivo): 93%
confirmed prostate-specific antigen (PSA) response (high-risk nmCRPC; subjects in apalutamide arm): 90%
HR for PSA progression (high-risk nmCRPC; vs placebo, 95% CI: 0.052, 0.080): 0.064
